These results are taken from patent US20250171431A1, “HETEROCYCLIC INHIBITORS OF IGF-1R FOR TREATMENT OF DISEASE” (HORIZON THERAPEUTICS IRELAND DAC, priority 2023, published 2025).

The target in the experiment is IGF-1R (Homo sapiens (Human), UniProt P08069). Description: Example B-1: IGF-1R Assay (PC3 cells, IGF1 stimulation, AlphaLISA). It counts as cell-based. As to conditions: 200 ng/mL IGF1 stimulation, read-out: Biological Activity against IGF-1R IC50. An outline of the steps:
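Readout is AlphaLISA signal from lysed PC3 cells, expressed as % inhibition versus vehicle and EC80 controls and banded by IC50. Before lysis, the cells were starved of serum for 2 h, exposed to 3× serially diluted compound for 2 h, and stimulated for 30 min with 200 ng/mL IGF1 (final).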

As a reminder, the IC50 is the concentration at which inhibition is half-maximal.

IGF-1R, sequence (P08069 31-1367): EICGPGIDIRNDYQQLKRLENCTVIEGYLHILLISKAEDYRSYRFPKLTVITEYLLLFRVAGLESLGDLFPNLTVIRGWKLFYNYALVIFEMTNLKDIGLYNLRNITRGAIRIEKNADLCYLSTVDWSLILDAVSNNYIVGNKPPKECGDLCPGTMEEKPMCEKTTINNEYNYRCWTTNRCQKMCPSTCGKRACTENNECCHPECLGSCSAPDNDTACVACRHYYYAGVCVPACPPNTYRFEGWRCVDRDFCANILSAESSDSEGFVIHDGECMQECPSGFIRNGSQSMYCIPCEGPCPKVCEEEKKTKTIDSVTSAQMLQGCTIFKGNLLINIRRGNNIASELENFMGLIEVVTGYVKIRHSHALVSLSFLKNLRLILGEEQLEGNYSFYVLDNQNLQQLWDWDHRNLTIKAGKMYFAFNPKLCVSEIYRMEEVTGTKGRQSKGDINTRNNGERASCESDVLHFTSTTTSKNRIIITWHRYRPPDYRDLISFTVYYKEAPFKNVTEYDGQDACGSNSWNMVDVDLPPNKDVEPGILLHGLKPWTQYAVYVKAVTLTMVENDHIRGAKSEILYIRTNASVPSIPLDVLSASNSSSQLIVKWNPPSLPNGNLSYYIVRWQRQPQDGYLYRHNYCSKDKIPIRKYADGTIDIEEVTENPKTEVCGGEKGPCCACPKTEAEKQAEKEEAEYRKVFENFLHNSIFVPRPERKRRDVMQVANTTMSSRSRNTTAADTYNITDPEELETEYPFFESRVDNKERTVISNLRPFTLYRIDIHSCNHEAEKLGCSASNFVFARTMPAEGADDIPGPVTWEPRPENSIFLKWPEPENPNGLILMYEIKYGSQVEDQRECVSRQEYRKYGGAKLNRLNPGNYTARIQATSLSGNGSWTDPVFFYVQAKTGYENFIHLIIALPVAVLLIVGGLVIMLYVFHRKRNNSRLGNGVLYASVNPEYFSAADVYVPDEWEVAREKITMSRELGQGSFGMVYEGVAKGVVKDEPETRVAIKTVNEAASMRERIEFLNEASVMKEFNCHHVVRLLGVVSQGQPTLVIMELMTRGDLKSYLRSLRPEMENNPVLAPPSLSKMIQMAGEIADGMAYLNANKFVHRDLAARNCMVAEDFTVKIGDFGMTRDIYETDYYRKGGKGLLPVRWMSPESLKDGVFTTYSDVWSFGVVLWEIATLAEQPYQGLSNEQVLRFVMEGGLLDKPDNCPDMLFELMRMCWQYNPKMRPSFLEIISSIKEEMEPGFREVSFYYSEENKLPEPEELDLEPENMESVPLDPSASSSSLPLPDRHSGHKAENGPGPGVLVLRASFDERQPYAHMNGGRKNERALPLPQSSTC

For `COc1cc(Nc2nccc(Nc3cnc4c(c3)CC(C)(C)CC4)n2)ccc1O[C@H]1C[C@H](N(C)C)C1` [Compound 339, 4-(6,6-dimethyl-5,6,7,8-tetrahydro-3-quinolylamino)-2-{3-methoxy-4-[(1r,3r)-3-(dimethylamino)cyclobutoxy]phenylamino}pyrimidine], the IC50 is no more than 0.5 µM.
As for `Clc1cccc2cc(Nc3ccnc(Nc4ccc(OCCCN5CCOCC5)cc4)n3)cnc12` [Compound 416, 4-(8-chloro-3-quinolylamino)-2-[p-(3-morpholinopropoxy)phenylamino]pyrimidine], the IC50 is no more than 0.5 µM.
On to `COc1cc(Nc2nccc(Nc3cnc4cccc(Cl)c4c3)n2)ccc1OCCCN1CCCCC1` [Compound 422, 4-(5-chloro-3-quinolylamino)-2-[3-methoxy-4-(3-piperidinopropoxy)phenylamino]pyrimidine], for which the IC50 is no more than 0.5 µM.
To `CN(C)[C@H]1C[C@H](Oc2ccc(Nc3nccc(Nc4cc5ccccc5[nH]c4=O)n3)cc2)C1` [Compound 248, 3-(2-{p-[(1r,3r)-3-(dimethylamino)cyclobutoxy]phenylamino}-4-pyrimidinyl-amino)-2(1H)-quinolinone] belongs no more than 0.5 µM; to `COc1ccc2cc(Nc3ccnc(Nc4ccc(O[C@H]5C[C@H](N(C)C)C5)c(OC)c4)n3)cnc2c1` [Compound 337, 4-(7-methoxy-3-quinolylamino)-2-{3-methoxy-4-[(1r,3r)-3-(dimethylamino)cyclobutoxy]phenylamino}pyrimidine], no more than 0.5 µM; to `COc1ccc2cc(Nc3ccnc(Nc4ccc(OCCCN5CCOCC5)cc4)n3)cnc2c1` [Compound 406, 4-(7-methoxy-3-quinolylamino)-2-[p-(3-morpholinopropoxy)phenylamino]pyrimidine], 2 to 10 µM.
For the compound `COc1cc(Nc2nccc(Nc3cnc4c(c3)C3CCC4C3)n2)ccc1OCCCN1CCCCC1` (centres unmarked) [Compound 56, 4-(3-azatricyclo[6.2.1.0^2,7]undeca-2,4,6-trien-5-ylamino)-2-[3-methoxy-4-(3-piperidinopropoxy)phenylamino] pyrimidine], the IC50 is no more than 0.5 µM.
To `COc1cc(Nc2nccc(Nc3cnc4c(Cl)cccc4c3)n2)ccc1OCCCN1CCOCC1` [Compound 413, 4-(8-chloro-3-quinolylamino)-2-[3-methoxy-4-(3-morpholinopropoxy)phenylamino]pyrimidine] belongs no more than 0.5 µM; to `CN(C)[C@H]1C[C@@H](Oc2ccc(Nc3nccc(Nc4cnc5c(c4)OCCO5)n3)cc2C#N)C1` [Compound 43, 5-[4-(2,3-dihydro-1,4-dioxa-5-aza-7-naphthylamino)-2-pyrimidinylamino]-2-[(1s,3s)-3-(dimethylamino)cyclobutoxy] benzonitrile], no more than 0.5 µM; to `COc1cc(Nc2nccc(Nc3cnc4c(F)cc(Cl)cc4c3)n2)ccc1O[C@H]1C[C@@H](N(C)C)C1` [Compound 114, 4-(6-chloro-8-fluoro-3-quinolylamino)-2-{3-methoxy-4-[(1s,3s)-3-(dimethylamino)cyclobutoxy]phenylamino}pyrimidine], no more than 0.5 µM.
To `COc1cc(Nc2nccc(Nc3cnc4cc[nH]c4c3)n2)ccc1O[C@H]1C[C@@H](N(C)C)C1` [Compound 299, 4-(1H-1,4-diazainden-6-ylamino)-2-{3-methoxy-4-[(1s,3s)-3-(dimethylamino)cyclobutoxy]phenylamino}pyrimidine] belongs 0.5 to 2 µM; to `COc1cc(N2CCC(C)(O)CC2)ncc1Nc1ncc(F)c(Nc2cc3ccccc3nc2C(N)=O)n1` [Compound 492, 3-{5-fluoro-2-[6-(4-hydroxy-4-methyl-1-piperidyl)-4-methoxy-3-pyridylamino]-4-pyrimidinylamino}-2-quinolinecarboxamide], no more than 0.5 µM.
To `CN(C)[C@H]1C[C@H](Oc2ccc(Nc3nccc(Nc4cnc5c(c4)OCCO5)n3)cc2)C1` [Compound 317, 4-(2,3-dihydro-1,4-dioxa-5-aza-7-naphthylamino)-2-{p-[(1r,3r)-3-(dimethylamino)cyclobutoxy]phenylamino}pyrimidine] belongs no more than 0.5 µM.
On to `COc1cc(Nc2nccc(Nc3ncc4ccc(Br)cc4n3)n2)ccc1O[C@H]1C[C@@H](N(C)C)C1` [Compound 307, 4-(7-bromo-2-quinazolinylamino)-2-{3-methoxy-4-[(1s,3s)-3-(dimethylamino)cyclobutoxy]phenylamino}pyrimidine], for which the half-inhibitory concentration (IC50) was in the range of 2 to 10 µM.
To `COc1cc(Nc2nccc(Nc3cnc4cc(F)c(F)cc4c3)n2)cnc1N1CCS(=N)(=O)CC1` [Compound 158, 4-(5-((4-((6,7-difluoroquinolin-3-yl)amino)pyrimidin-2-yl)amino)-3-methoxypyridin-2-yl)-1-imino-116-thiomorpholine 1-oxide] belongs 0.5 to 2 µM; to `COc1cc(Nc2nccc(Nc3cnc4c(c3)CCCO4)n2)ccc1OCCCN1CCCCC1` [Compound 375, 4-(3,4-dihydro-2H-1-oxa-8-azanaphth-6-ylamino)-2-[3-methoxy-4-(3-piperidinopropoxy)phenylamino]pyrimidine], no more than 0.5 µM.
To `c1ccc2ncc(Nc3ccnc(Nc4ccc(O[C@H]5C[C@@H](N6CCCCC6)C5)cc4)n3)cc2c1` [Compound 363, 4-(3-quinolylamino)-2-{p-[(1s,3s)-3-piperidinocyclobutoxy]phenylamino}pyrimidine] belongs no more than 0.5 µM; to `COc1cc(Nc2nccc(Nc3cnc4c(F)c(F)ccc4c3)n2)ccc1O[C@H]1C[C@@H](N(C)C)C1` [Compound 298, 4-(7,8-difluoro-3-quinolylamino)-2-{3-methoxy-4-[(1s,3s)-3-(dimethylamino)cyclobutoxy]phenylamino}pyrimidine], no more than 0.5 µM.
As for `COc1cc(Nc2nccc(Nc3cnc4c(F)cccc4c3)n2)cnc1O[C@H]1C[C@@H](N(C)C)C1` [Compound 270, 4-(8-fluoro-3-quinolylamino)-2-{5-methoxy-6-[(1s,3s)-3-(dimethylamino)cyclobutoxy]-3-pyridylamino}pyrimidine], the half-maximal inhibitory concentration (IC50) is no more than 0.5 µM.
To `COc1cc(Nc2nccc(Nc3cnc4ccc(F)c(F)c4c3)n2)ccc1O[C@H]1C[C@@H](N(C)C)C1` [Compound 125, 4-(5,6-difluoro-3-quinolylamino)-2-{3-methoxy-4-[(1s,3s)-3-(dimethylamino)cyclobutoxy]phenylamino}pyrimidine] belongs no more than 0.5 µM; to `Oc1ccc2ncc(Nc3ccnc(Nc4ccc(OCCCN5CCOCC5)cc4)n3)cc2c1` [Compound 414, 3-{2-[p-(3-morpholinopropoxy)phenylamino]-4-pyrimidinylamino}-6-quinolinol], no more than 0.5 µM.
To `COc1cc(Nc2nccc(Nc3cc4cccc(F)c4[nH]c3=O)n2)cnc1O[C@H]1C[C@@H](N(C)C)C1` [Compound 246, 8-fluoro-3-(2-{5-methoxy-6-[(1s,3s)-3-(dimethylamino)cyclobutoxy]-3-pyridylamino}-4-pyrimidinylamino)-1,2-dihydro-2-quinolinone] belongs no more than 0.5 µM.
Turning to `COc1cc(Nc2nccc(Nc3cnc4c(c3)C3CCC4C3)n2)ccc1O[C@H]1C[C@H](N(C)C)C1` (some centres unmarked) [Compound 76, 4-(3-azatricyclo[6.2.1.02,7]undeca-2,4,6-trien-5-ylamino)-2-{3-methoxy-4-[(1r,3r)-3-(dimethylamino)cyclobutoxy]phenylamino}pyrimidine], the half-inhibitory concentration (IC50) is no more than 0.5 µM.
`COc1cc(Nc2nccc(Nc3cnc4ccc(C5CC5)cc4c3)n2)ccc1O[C@H]1C[C@H](N(C)C)C1` [Compound 325, 4-(6-cyclopropyl-3-quinolylamino)-2-{3-methoxy-4-[(1r,3r)-3-(dimethylamino)cyclobutoxy]phenylamino}pyrimidine]: the IC50 was no more than 0.5 µM.
Consider `COc1cc(Nc2nccc(Nc3cnc4ccc(C(F)(F)F)cc4c3)n2)ccc1O[C@H]1C[C@H](N(C)C)C1` [Compound 334, 2-{3-methoxy-4-[(1r,3r)-3-(dimethylamino)cyclobutoxy]phenylamino}-4-[6-(trifluoromethyl)-3-quinolylamino]pyrimidine], for which the IC50 is no more than 0.5 µM.
As for `COc1cc(Nc2nccc(Nc3ccc(Cl)nc3C(N)=O)n2)ccc1O[C@H]1C[C@@H](N(C)C)C1` [Compound 275, 6-chloro-3-(2-{3-methoxy-4-[(1s,3s)-3-(dimethylamino)cyclobutoxy]phenylamino}-4-pyrimidinylamino)-2-pyridinecarboxamide], the half-maximal inhibitory concentration (IC50) is no more than 0.5 µM.
On to `COc1cc(Nc2nccc(Nc3cnc4[nH]cc(C)c4c3)n2)ccc1O[C@H]1C[C@@H](N(C)C)C1` [Compound 281, 2-{3-methoxy-4-[(1s,3s)-3-(dimethylamino)cyclobutoxy]phenylamino}-4-(3-methyl-1H-1,7-diazainden-5-ylamino)pyrimidine], for which the IC50 was no more than 0.5 µM.
To `COc1cc(Nc2cc(Nc3cnc4ccccc4n3)ccn2)ccc1O[C@H]1C[C@@H](N(C)C)C1` [Compound 262, 2-{3-methoxy-4-[(1s,3s)-3-(dimethylamino)cyclobutoxy]phenylamino}-4-(2-quinoxalinylamino)pyridine] belongs no more than 0.5 µM; to `COc1nc(N2CCC(C)(O)CC2)ccc1Nc1nccc(Nc2cnc3ccc(Cl)cc3c2)n1` [Compound 489, 1-{5-[4-(6-chloro-3-quinolylamino)-2-pyrimidinylamino]-6-methoxy-2-pyridyl}-4-methyl-4-piperidinol], no more than 0.5 µM; to `COc1cc(N2CCN(C)CC2)ccc1Nc1nccc(Nc2cnc3cc(Cl)ccc3c2)n1` [Compound 464, 4-(7-chloro-3-quinolylamino)-2-[2-methoxy-4-(4-methyl-1-piperazinyl)phenylamino] pyrimidine], no more than 0.5 µM.
To `COc1cc(Nc2nccc(Nc3cnc4ccc(Cl)cc4c3)n2)cnc1N1CCC(C)(O)CC1` [Compound 476, 1-{5-[4-(6-chloro-3-quinolylamino)-2-pyrimidinylamino]-3-methoxy-2-pyridyl}-4-methyl-4-piperidinol] belongs no more than 0.5 µM; to `c1ccc2ncc(Nc3ccnc(Nc4ccc(OCCCN5CCOCC5)nc4)n3)cc2c1` [Compound 31, 2-[6-(3-morpholinopropoxy)-3-pyridylamino]-4-(3-quinolylamino)pyrimidine], no more than 0.5 µM.
